Assay results: publication PMC8577999 (Slas Discovery, 2021)
Where “and” joins values, the source holds several entries; their conditions need not be identical. Identical values can stand only once. Counter-ions that a name gives are not always drawn. Square brackets hold non-standard residues; d marks the D form. Peptide text beside a SMILES is read from it. Nle = CCCC[C@H](N)C(=O)O

Legend:
[1] = tested on: SARS-CoV-2 (USA-WA1/2020 isolate); type: cell-based
[2] = tested on: MLV reporter luciferase virus pseudotyped with the SARS-CoV-2 Spike protein (SARS2-S)
VSV-G = assay: microbe, parasite or virus in culture; type: cell-based; conditions: Vesicular stomatitis virus, read-out: VSV-G IC50
SARS2-S WT = assay: microbe, parasite or virus in culture; type: cell-based, SARS-CoV-2; conditions: Severe acute respiratory syndrome coronavirus 2, read-out: WT IC50
[3] = tested on: main viral protease (MPRO); conditions: read-out: MPRO IC50; cited from earlier work
SARS2-S = assay: microbe, parasite or virus in culture; type: cell-based, SARS-CoV-2; conditions: Severe acute respiratory syndrome coronavirus 2, read-out: SARS2-S IC50
SARS-CoV-2 = type: cell-based
SARS1-S = assay: microbe, parasite or virus in culture; type: cell-based, SARS-CoV-1

**Q.** Which “activity against wild type SARS-CoV-2 (CPE)” value [1] does the source give for `CN(C)C(=O)COC(=O)Cc1ccc(OC(=O)c2ccc(NC(=N)N)cc2)cc1` [Camostat mesylate, reference compound] here?
**A.** did not shown any activity

**Q.** For `CCCC[C@@H](C=O)NC(=O)[C@H](CC(C)C)NC(=O)[C@H](CC(C)C)NC(C)=O` [SR-372, calpain inhibitor I] (Ac-Leu-Leu-[Nle]-aldehyde), which “higher potency as compared to the best ReFRAME hit, SR-806 (VBY-825)” value [2] is on record?
**A.** 3.5 fold

**Q.** And the “higher specificity as compared to the best ReFRAME hit, SR-806 (VBY-825)” value [2]?
**A.** > 3 fold

**Q.** What about the “therapeutic index (TI=CC50/IC50)” value [2] of the same molecule?
**A.** greater than 100

**Q.** For `CCCC[C@@H](C=O)NC(=O)[C@H](CC(C)C)NC(=O)OCc1ccccc1` [SR-914, calpeptin], which IC50 (VSV-G) is on record?
**A.** > 20000 nM

**Q.** And the IC50 (SARS2-S WT)?
**A.** 3.78 nM

**Q.** What about the IC50 [3] of the same molecule?
**A.** 10400 nM

**Q.** And the IC50 (SARS2-S)?
**A.** 10.9 ± 0.78 nM

**Q.** What about the “higher potency as compared to the best ReFRAME hit, SR-806 (VBY-825)” value [2] of the same molecule?
**A.** 7.1 fold

**Q.** What about the “higher specificity as compared to the best ReFRAME hit, SR-806 (VBY-825)” value [2] of the same molecule?
**A.** higher than 7.1 fold

**Q.** And the “therapeutic index (TI=CC50/IC50)” value [2]?
**A.** greater than 100

**Q.** What about the “activity in plaque assays of wild type SARS-CoV-2 infection” value (SARS-CoV-2) of the same molecule?
**A.** further confirmed

**Q.** And the EC50 ([1]; read-out: EC50, SARS-CoV-2-induced CPE assay)?
**A.** 174 nM and 163 nM

**Q.** And the “less potent against SARS1-S than against SARS2-S” value (SARS1-S)?
**A.** ~8 fold

**Q.** And the IC50 (SARS1-S; Severe acute respiratory syndrome coronavirus, read-out: SARS1-S IC50)?
**A.** 77.2 ± 4.69 nM
